Laboratory results: patent US20260317320A1, “C5AR1 ANTAGONISTS AND USES THEREOF” (Vanqua Bio, Inc., priority 2022, published 2026)

Target: T1, complement C5a receptor 1 (C5aR1) (Homo sapiens, UniProt P21730)
T1 construct: β-galactosidase fragment (PathHunter enzyme complementation); host or cells: CHO-K1 (PathHunter CHO-K1 C5aR1 β-arrestin cell line)
T1 sequence (P21730 1-350): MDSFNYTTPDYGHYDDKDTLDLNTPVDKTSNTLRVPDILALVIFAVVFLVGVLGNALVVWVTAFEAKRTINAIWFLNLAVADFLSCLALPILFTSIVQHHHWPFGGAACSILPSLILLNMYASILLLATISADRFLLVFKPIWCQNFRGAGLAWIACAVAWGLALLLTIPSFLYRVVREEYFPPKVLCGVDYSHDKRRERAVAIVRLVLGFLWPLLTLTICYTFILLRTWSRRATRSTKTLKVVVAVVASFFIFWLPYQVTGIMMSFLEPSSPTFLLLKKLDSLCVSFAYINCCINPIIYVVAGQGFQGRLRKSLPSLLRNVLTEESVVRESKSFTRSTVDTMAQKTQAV
Assay: β-arrestin recruitment via C5aR1 activation in live CHO-K1 cells (PathHunter), antagonist mode
Assay type: cell-based
Conditions: not given
Procedure: Exemplary compounds were evaluated for classical GPCR β-arrestin recruitment via complement C5a receptor 1 (C5aR1) activation in live CHO-K1 cells. This cell line expresses two fragments of the […] protein coupled to β-arrestin and C5aR1. Complementation of the two fragments allows for the assessment of both C5aR1 agonism and antagonism. Recombinant hC5a (EC90) was used as the competing natural agonist against disclosed compounds (more information on the expanded protocol and cell line can be found on the manufacturer's website: PathHunter® CHO-K1 C5aR1 β-arrestin cell line, DiscoverX, Catalog No. 93-0557C2). […] IC50 ranges: A: IC50≤500 nM; B: 500 nM<IC50≤5 uM; C: 5 uM<IC50≤100 uM; D: IC50>100 uM.

IC50, < 500 nM:
Cc1cnc2cc(C3CCN(c4c(C)cccc4F)CC3)c(=O)n(Cc3cccnc3OC(F)(F)F)c2n1 [compound 100, 7-(1-(2-Fluoro-6-methylphenyl)piperidin-4-yl)-3-methyl-5-((2-(trifluoromethoxy)pyridin-3-yl)methyl)pyrido[2,3-b]pyrazin-6(5H)-one]

Same assay, conditions: antagonist mode; recombinant hC5a (EC90) as competing natural agonist; live CHO-K1 cells; read-out: [Antagonist] B-arrestin2 recruitment: Average IC50

IC50, 500 to 5000 nM:
Cc1cnc2cc([C@H]3CC[C@@H](c4c(C)cccc4F)CC3)c(=O)n(Cc3nccnc3C(F)(F)F)c2n1 [99a, 7-(cis-4-(2-Fluoro-6-methylphenyl)cyclohexyl)-3-methyl-5-((3-(trifluoromethyl)pyrazin-2-yl)methyl)pyrido[2,3-b]pyrazin-6(5H)-one]
Cc1cnc2cc([C@H]3CC[C@@H](c4c(C)cccc4F)CC3)c(=O)n(Cc3ncccc3C(F)(F)F)c2n1 [121b, 7-(cis-4-(2-Fluoro-6-methylphenyl)cyclohexyl)-3-methyl-5-((3-(trifluoromethyl)pyridin-2-yl)methyl)pyrido[2,3-b]pyrazin-6(5H)-one]
Cc1cnc2cc(C3CCN(c4c(C)cccc4F)CC3)c(=O)n(Cc3ccccc3OC(F)F)c2n1 [compound 74, 5-(2-(Difluoromethoxy)benzyl)-7-(1-(2-fluoro-6-methylphenyl)piperidin-4-yl)-3-methylpyrido[2,3-b]pyrazin-6(5H)-one]
Cc1cnc2c(C)c(C3CCN(c4c(C)cccc4F)CC3)c(=O)n(Cc3ncccc3C(F)(F)F)c2n1 [compound 75, 7-(1-(2-Fluoro-6-methylphenyl)piperidin-4-yl)-3,8-dimethyl-5-((3-(trifluoromethyl)pyridin-2-yl)methyl)pyrido[2,3-b]pyrazin-6(5H)-one]
COc1cnc2cc(C3CCN(c4c(C)cccc4F)CC3)c(=O)n(Cc3nccnc3C(F)(F)F)c2n1 [compound 76, 7-(1-(2-Fluoro-6-methylphenyl)piperidin-4-yl)-3-methoxy-5-((3-(trifluoromethyl)pyrazin-2-yl)methyl)pyrido[2,3-b]pyrazin-6(5H)-one]
Cc1c(C2CCN(c3ccccc3C(F)(F)F)CC2)c(=O)n(Cc2nccnc2F)c2nccnc12 [compound 77, 5-((3-Fluoropyrazin-2-yl)methyl)-8-methyl-7-(1-(2-(trifluoromethyl)phenyl)piperidin-4-yl)pyrido[2,3-b]pyrazin-6(5H)-one]
Cc1cnc2cc(C3CCN(c4c(C)cccc4F)CC3)c(=O)n(Cc3ccccc3OC(F)(F)F)c2n1 [compound 78, 7-(1-(2-Fluoro-6-methylphenyl)piperidin-4-yl)-3-methyl-5-(2-(trifluoromethoxy)benzyl)pyrido[2,3-b]pyrazin-6(5H)-one]
COc1ccnc(F)c1N1CCC(c2cc3nccnc3n(Cc3ncccc3C(F)(F)F)c2=O)CC1 [compound 79, 7-(1-(2-Fluoro-4-methoxypyridin-3-yl)piperidin-4-yl)-5-((3-(trifluoromethyl)pyridin-2-yl)methyl)pyrido[2,3-b]pyrazin-6(5H)-one]
COc1ccnc(F)c1N1CCC(c2cc3ncc(C)nc3n(Cc3nccnc3C(F)(F)F)c2=O)CC1 [compound 80, 7-(1-(2-Fluoro-4-methoxypyridin-3-yl)piperidin-4-yl)-3-methyl-5-((3-(trifluoromethyl)pyrazin-2-yl)methyl)pyrido[2,3-b]pyrazin-6(5H)-one]
Cc1cccc(F)c1C1CCN(c2cc3nccnc3n(Cc3ncccc3C(F)(F)F)c2=O)CC1 [compound 91, 7-(4-(2-fluoro-6-methylphenyl)piperidin-1-yl)-5-((3-(trifluoromethyl)pyridin-2-yl)methyl) pyrido[2,3-b]pyrazin-6(5H)-one]
Cc1cnc2cc(N3CCC(c4c(C)cccc4F)CC3)c(=O)n(Cc3nccnc3C(F)(F)F)c2n1 [compound 95, 7-(4-(2-Fluoro-6-methylphenyl)piperidin-1-yl)-3-methyl-5-((3-(trifluoromethyl)pyrazin-2-yl)methyl)pyrido[2,3-b]pyrazin-6(5H)-one]
Cc1cccc(F)c1N1CCN(c2c(C)c3nccnc3n(Cc3nccnc3C(F)(F)F)c2=O)CC1 [compound 97, 7-(4-(2-Fluoro-6-methylphenyl)piperazin-1-yl)-8-methyl-5-((3-(trifluoromethyl)pyrazin-2-yl)methyl)pyrido[2,3-b]pyrazin-6(5H)-one]

IC50, 5000 to 100000 nM:
Cc1cnc2cc(C3CCN(c4c(C)cccc4F)CC3)c(=O)n(Cc3ncccc3C(F)(F)F)c2c1 [compound 90, 3-(1-(2-Fluoro-6-methylphenyl)piperidin-4-yl)-7-methyl-1-((3-(trifluoromethyl)pyridin-2-yl)methyl)-1,5-naphthyridin-2(1H)-one]

IC50, < 500 nM:
Cc1cnc2cc([C@H]3CC[C@H](c4c(C)cccc4F)CC3)c(=O)n(Cc3nccnc3C(F)(F)F)c2n1 [99b, 7-(trans-4-(2-Fluoro-6-methylphenyl)cyclohexyl)-3-methyl-5-((3-(trifluoromethyl)pyrazin-2-yl)methyl)pyrido[2,3-b]pyrazin-6(5H)-one]
Cc1cnc2cc([C@H]3CC[C@H](c4c(C)cccc4F)CC3)c(=O)n(Cc3ncccc3C(F)(F)F)c2n1 [121a, 7-(trans-4-(2-Fluoro-6-methylphenyl)cyclohexyl)-3-methyl-5-((3-(trifluoromethyl)pyridin-2-yl)methyl)pyrido[2,3-b]pyrazin-6(5H)-one]
Cc1cccc(F)c1N1CCC(c2cc3nccnc3n(Cc3ccccc3C(F)(F)F)c2=O)CC1 [compound 1, 7-(1-(2-Fluoro-6-methylphenyl)piperidin-4-yl)-5-(2-(trifluoromethyl)benzyl)pyrido[2,3-b]pyrazin-6(5H)-one]
Cc1ncc2cc(C3CCN(c4c(C)cccc4F)CC3)c(=O)n(Cc3ncccc3C(F)(F)F)c2n1 [compound 81, 6-(1-(2-fluoro-6-methylphenyl)piperidin-4-yl)-2-methyl-8-((3-(trifluoromethyl)pyridin-2-yl)methyl)pyrido[2,3-d]pyrimidin-7(8H)-one]
Cc1c(C2CCN(c3ccccc3C(F)(F)F)CC2)c(=O)n(Cc2ncccc2F)c2nccnc12 [compound 83, 5-((3-Fluoropyridin-2-yl)methyl)-8-methyl-7-(1-(2-(trifluoromethyl)phenyl)piperidin-4-yl)pyrido[2,3-b]pyrazin-6(5H)-one]
COc1ccnc(F)c1N1CCC(c2cc3ncc(C)nc3n(Cc3ncccc3C(F)(F)F)c2=O)CC1 [compound 85, 7-(1-(2-Fluoro-4-methoxypyridin-3-yl)piperidin-4-yl)-3-methyl-5-((3-(trifluoromethyl)pyridin-2-yl)methyl)pyrido[2,3-b]pyrazin-6(5H)-one]
Cc1cnc2cc(N3CCN(c4c(C)cccc4F)CC3)c(=O)n(Cc3nccnc3C(F)(F)F)c2n1 [compound 92, 7-(4-(2-Fluoro-6-methylphenyl)piperazin-1-yl)-3-methyl-5-((3-(trifluoromethyl)pyrazin-2-yl)methyl)pyrido[2,3-b]pyrazin-6(5H)-one]
Cc1ccc2cc(C3CCN(c4c(C)cccc4F)CC3)c(=O)n(Cc3ncccc3C(F)(F)F)c2n1 [compound 94, 3-(1-(2-Fluoro-6-methylphenyl)piperidin-4-yl)-7-methyl-1-((3-(trifluoromethyl)pyridin-2-yl)methyl)-1,8-naphthyridin-2(1H)-one]
Cc1cccc(F)c1N1CCN(c2cc3nccnc3n(Cc3ncccc3C(F)(F)F)c2=O)CC1 [compound 96, 7-(4-(2-Fluoro-6-methylphenyl)piperazin-1-yl)-5-((3-(trifluoromethyl)pyridin-2-yl)methyl)pyrido[2,3-b]pyrazin-6(5H)-one]
Cc1cccc(F)c1N1CCC(c2cc3nccnc3n(Cc3ncccc3OC(F)F)c2=O)CC1 [compound 98, 5-((3-(Difluoromethoxy)pyridin-2-yl)methyl)-7-(1-(2-fluoro-6-methylphenyl)piperidin-4-yl)pyrido[2,3-b]pyrazin-6(5H)-one]

IC50, > 100000 nM:
Cc1cccc(F)c1N1CCC(c2cc3ncncc3n(Cc3nccnc3C(F)(F)F)c2=O)CC1 [compound 82, 7-(1-(2-Fluoro-6-methylphenyl)piperidin-4-yl)-5-((3-(trifluoromethyl)pyrazin-2-yl)methyl)pyrido[3,2-d]pyrimidin-6(5H)-one]
Cc1cccc(F)c1N1CCC(c2cc3ncncc3n(Cc3ncccc3C(F)(F)F)c2=O)CC1 [compound 84, 7-(1-(2-Fluoro-6-methylphenyl)piperidin-4-yl)-5-((3-(trifluoromethyl)pyridin-2-yl)methyl)pyrido[3,2-d]pyrimidin-6(5H)-one]
COc1ncnc2cc(C3CCN(c4c(C)cccc4F)CC3)c(=O)n(Cc3nccnc3C(F)(F)F)c12 [compound 93, 7-(1-(2-Fluoro-6-methylphenyl)piperidin-4-yl)-4-methoxy-5-((3-(trifluoromethyl)pyrazin-2-yl)methyl)pyrido[3,2-d]pyrimidin-6(5H)-one]
